Measurements as given in patent publication US10131652B2, “Pyrimidinyloxy benzene derivatives as herbicides” (E. I. DU PONT DE NEMOURS AND COMPANY, priority 2014, dated 2018).
Read-outs that look alike come from different tables or passages of the source.

Tests used:
Assay in all cases: Test D pre-/postemergence plant response
Format in all cases: in vivo
[1] = test system: large (Lg) crabgrass (Digitaria sanguinalis); conditions: Digitaria sanguinalis; for pest or weed control at 62 g/ha: 62 g ai/ha; for pest or weed control at 125 g/ha: 125 g ai/ha
Description: (§1) Seeds of plant species selected from blackgrass (Alopecurus myosuroides), Italian ryegrass (Lolium multiflorum), winter wheat (Triticum aestivum), galium (catchweed bedstraw, Galium aparine), corn (Zea mays), large (Lg) crabgrass (Digitaria sanguinalis), giant foxtail (Setaria faberii), johnsongrass (Sorghum halepense), lambsquarters (Chenopodium album), morningglory (Ipomoea coccinea), yellow nutsedge (Cyperus esculentus), pigweed (Amaranthus retroflexus), ragweed (common ragweed, Ambrosia elatior), soybean (Glycine max), bamyardgrass (Echinochloa crus-galli), oilseed rape (Brassica napus), waterhemp (common waterhemp, Amaranthus rudis), and velvetleaf (Abutilon theophrasti) were planted into a blend of loam soil and sand and treated preemergence with test chemicals formulated in a non-phytotoxic solvent mixture which included a surfactant. At the same time, plants selected from these crop and weed species and also kochia (Kochia scoparia), wild oat (Avena fatua), and chickweed (common chickweed, Stellaria media) were planted in pots containing Redi-Earth® planting medium (Scotts Company, 14111 Scottslawn Road, Marysville, Ohio 43041) comprising spaghnum peat moss, vermiculite, wetting agent and starter nutrients and treated with postemergence applications of test chemicals formulated in the same manner. Plants ranged in height from 2 to 18 cm (1- to 4-leaf stage) for postemergence treatments. Treated plants and controls were maintained in a greenhouse for 13 to 15 days, after which time all species were compared to controls and visually evaluated. Plant response ratings, summarized in Table D, are based on a scale of 0 to 100 where 0 is no effect and 100 is complete control. A dash (-) response means no test result.

[2] = test system: morningglory (Ipomoea coccinea); conditions: Ipomoea; for pest or weed control at 16 g/ha: 16 g ai/ha; for pest or weed control at 31 g/ha: 31 g ai/ha; for pest or weed control at 62 g/ha: 62 g ai/ha; for pest or weed control at 125 g/ha: 125 g ai/ha
Description: as §1

[3] = test system: ragweed (common ragweed, Ambrosia elatior); conditions: Ambrosia artemisiifolia; for pest or weed control at 16 g/ha: 16 g ai/ha; for pest or weed control at 31 g/ha: 31 g ai/ha; for pest or weed control at 62 g/ha: 62 g ai/ha; for pest or weed control at 125 g/ha: 125 g ai/ha
Description: as §1

[4] = test system: soybean (Glycine max); conditions: Glycine max; for plant injury at 16 g/ha: 16 g ai/ha; for plant injury at 31 g/ha: 31 g ai/ha; for plant injury at 62 g/ha: 62 g ai/ha; for plant injury at 125 g/ha: 125 g ai/ha
Description: as §1

[5] = test system: waterhemp (common waterhemp, Amaranthus rudis); conditions: Amaranthus tuberculatus; for pest or weed control at 16 g/ha: 16 g ai/ha; for pest or weed control at 31 g/ha: 31 g ai/ha; for pest or weed control at 62 g/ha: 62 g ai/ha; for pest or weed control at 125 g/ha: 125 g ai/ha
Description: as §1

[6] = test system: winter wheat (Triticum aestivum); conditions: Triticum aestivum; for plant injury at 16 g/ha: 16 g ai/ha; for plant injury at 31 g/ha: 31 g ai/ha; for plant injury at 62 g/ha: 62 g ai/ha; for plant injury at 125 g/ha: 125 g ai/ha
Description: as §1

[7] = test system: yellow nutsedge (Cyperus esculentus); conditions: Cyperus, pre-emergence, Preemergence
Description: as §1

[8] = post-emergence, Postemergence, scale 0 to 100, 0 no effect, 100 complete control, read-out: Plant response rating, Crabgrass, Large
[9] = post-emergence, Postemergence, scale 0 to 100 (0 no effect, 100 complete control), read-out: Morningglory plant response rating
[10] = post-emergence, Postemergence, scale 0 to 100, 0 no effect, 100 complete control, read-out: Plant response rating, Morningglory
[11] = pre-emergence, Preemergence, scale 0 to 100 (0 no effect, 100 complete control), read-out: Plant response rating, Morningglory
[12] = post-emergence, Postemergence, scale 0 to 100 (0 no effect, 100 complete control), read-out: Ragweed plant response rating
[13] = post-emergence, Postemergence, scale 0 to 100, 0 no effect, 100 complete control, read-out: Plant response rating, Ragweed
[14] = pre-emergence, Preemergence, scale 0 to 100 (0 no effect, 100 complete control), read-out: Plant response rating, Ragweed
[15] = post-emergence, Postemergence, scale 0 to 100 (0 no effect, 100 complete control), read-out: Soybean plant response rating
[16] = post-emergence, Postemergence, scale 0 to 100, 0 no effect, 100 complete control, read-out: Plant response rating, Soybean
[17] = pre-emergence, Preemergence, scale 0 to 100 (0 no effect, 100 complete control), read-out: Plant response rating, Soybean
[18] = post-emergence, Postemergence, scale 0 to 100 (0 no effect, 100 complete control), read-out: Waterhemp plant response rating
[19] = post-emergence, Postemergence, scale 0 to 100, 0 no effect, 100 complete control, read-out: Plant response rating, Waterhemp
[20] = pre-emergence, Preemergence, scale 0 to 100 (0 no effect, 100 complete control), read-out: Plant response rating, Waterhemp
[21] = post-emergence, Postemergence, scale 0 to 100 (0 no effect, 100 complete control), read-out: Wheat plant response rating
[22] = post-emergence, Postemergence, scale 0 to 100, 0 no effect, 100 complete control, read-out: Plant response rating, Wheat
[23] = pre-emergence, Preemergence, scale 0 to 100 (0 no effect, 100 complete control), read-out: Plant response rating, Wheat

SMILES: FC(F)c1cc(-c2ccccc2Oc2ncc(Cl)cn2)on1 [Compound 53, 5-chloro-2-[2-[3-(difluoromethyl)-5-isoxazolyl]phenoxy]pyrimidine]
- pest or weed control at 62 g/ha [1, 8]: 15%
- pest or weed control at 125 g/ha [1, 8]: 30%
- pest or weed control at 125 g/ha ([1]; pre-emergence, Preemergence, read-out: Plant response rating (scale 0 to 100), Crabgrass, Large): 100%
- pest or weed control at 16 g/ha ([1]; pre-emergence, Preemergence, 16 g ai/ha, scale 0 to 100 (0 no effect, 100 complete control), read-out: Plant response rating, Crabgrass, Large): 65%
- pest or weed control at 31 g/ha ([1]; pre-emergence, Preemergence, 31 g ai/ha, scale 0 to 100 (0 no effect, 100 complete control), read-out: Plant response rating, Crabgrass, Large): 95%
- pest or weed control at 62 g/ha ([1]; pre-emergence, Preemergence, scale 0 to 100 (0 no effect, 100 complete control), read-out: Plant response rating, Crabgrass, Large): 98%
- pest or weed control at 16 g/ha [2, 9]: 50%
- pest or weed control at 31 g/ha [2, 9]: 80%
- pest or weed control at 62 g/ha [2, 10]: 85%
- pest or weed control at 125 g/ha [2, 10]: 55%
- pest or weed control at 125 g/ha ([2]; pre-emergence, Preemergence, read-out: Plant response rating (scale 0 to 100), Morningglory): 40%
- pest or weed control at 16 g/ha [2, 11]: 0%
- pest or weed control at 31 g/ha [2, 11]: 0%
- pest or weed control at 62 g/ha [2, 11]: 45%
- pest or weed control at 16 g/ha [3, 12]: 50%
- pest or weed control at 31 g/ha [3, 12]: 50%
- pest or weed control at 62 g/ha [3, 13]: 55%
- pest or weed control at 125 g/ha [3, 13]: 55%
- pest or weed control at 125 g/ha ([3]; pre-emergence, Preemergence, read-out: Plant response rating (scale 0 to 100), Ragweed): 85%
- pest or weed control at 16 g/ha [3, 14]: 0%
- pest or weed control at 31 g/ha [3, 14]: 40%
- pest or weed control at 62 g/ha [3, 14]: 55%
- plant injury at 16 g/ha [4, 15]: 60%
- plant injury at 31 g/ha [4, 15]: 90%
- plant injury at 62 g/ha [4, 16]: 95%
- plant injury at 125 g/ha [4, 16]: 98%
- plant injury at 125 g/ha ([4]; pre-emergence, Preemergence, read-out: Plant response rating (scale 0 to 100), Soybean): 80%
- plant injury at 16 g/ha [4, 17]: 0%
- plant injury at 31 g/ha [4, 17]: 25%
- plant injury at 62 g/ha [4, 17]: 55%
- pest or weed control at 16 g/ha [5, 18]: 80%
- pest or weed control at 31 g/ha [5, 18]: 90%
- pest or weed control at 62 g/ha [5, 19]: 90%
- pest or weed control at 125 g/ha [5, 19]: 100%
- pest or weed control at 125 g/ha ([5]; pre-emergence, Preemergence, read-out: Plant response rating (scale 0 to 100), Waterhemp): 100%
- pest or weed control at 16 g/ha [5, 20]: 100%
- pest or weed control at 31 g/ha [5, 20]: 100%
- pest or weed control at 62 g/ha [5, 20]: 100%
- plant injury at 16 g/ha [6, 21]: 0%
- plant injury at 31 g/ha [6, 21]: 0%
- plant injury at 62 g/ha [6, 22]: 0%
- plant injury at 125 g/ha [6, 22]: 0%
- plant injury at 125 g/ha ([6]; pre-emergence, Preemergence, read-out: Plant response rating (scale 0 to 100), Wheat): 5%
- plant injury at 16 g/ha [6, 23]: 0%
- plant injury at 31 g/ha [6, 23]: 0%
- plant injury at 62 g/ha [6, 23]: 0%
- pest or weed control at 125 g/ha ([7]; 125 g ai/ha, read-out: Plant response rating (scale 0 to 100), Nutsedge, Yellow): 5%
- pest or weed control at 16 g/ha ([7]; 16 g ai/ha, scale 0 to 100 (0 no effect, 100 complete control), read-out: Plant response rating, Nutsedge, Yellow): 20%
- pest or weed control at 31 g/ha ([7]; 31 g ai/ha, scale 0 to 100 (0 no effect, 100 complete control), read-out: Plant response rating, Nutsedge, Yellow): 0%
- pest or weed control at 62 g/ha ([7]; 62 g ai/ha, scale 0 to 100 (0 no effect, 100 complete control), read-out: Plant response rating, Nutsedge, Yellow): 0%
